Assay results from ChEMBL document CHEMBL4196107, “Antiangiogenic Activity and Chemical Derivatization of the Neurotoxic Acetogenin Annonacin Isolated from Asimina triloba” (J Nat Prod, 2018).
Activity calls are given as the source filed them. The calls are words filed in the database; no cut-off is given here.

Tests used:
[1] = Effective permeability of the compound at pH 7.4 by PAMPA-BBB assay
[2] = test system: Thoracic aorta; experiment: Antiangiogenic activity in Sprague-Dawley rat thoracic aorta ring assessed as inhibition of microvessels outgrowth after 5 days; assay type: functional, tissue-based; conditions: 120 h
[3] = Effective permeability of the compound in PBS at 10 uM at pH 7.4 after 16 hrs by PAMPA-BBB assay
[4] = test system: Thoracic aorta; experiment: Antiangiogenic activity in Sprague-Dawley rat thoracic aorta ring assessed as inhibition of microvessels outgrowth at 50 uM after 5 days; assay type: functional
[5] = test system: Thoracic aorta; experiment: Antiangiogenic activity in Sprague-Dawley rat thoracic aorta ring assessed as inhibition of microvessels outgrowth at 1 uM after 5 days; assay type: functional, tissue-based

CC(C)NCC(O)COc1cccc2ccccc12 (centres undefined) [PROPRANOLOL]
Papp [1]: 12 ×10⁻⁶ cm/s

CCCCCCCCCCCC[C@@H](O)[C@H]1CC[C@H]([C@H](O)CCCC[C@H](O)CCCCC[C@@H](O)CC2=C[C@H](C)OC2=O)O1
IC50 [2]: 3000 nM
Papp at 16 h, 10 µM [3]: 0.51 ×10⁻⁶ cm/s

CCCCCCCCCCCC[C@@H](N=[N+]=[N-])[C@H]1CC[C@H]([C@@H](CCCC[C@@H](CCCCC[C@H](CC2=C[C@H](C)OC2=O)N=[N+]=[N-])N=[N+]=[N-])N=[N+]=[N-])O1
inhibition [4]: inactive

CO[C@@H]1[C@H](OC(=O)NC(=O)CCl)CC[C@]2(CO2)[C@H]1[C@@]1(C)O[C@@H]1CC=C(C)C
inhibition [4]: Active

CNC(=O)c1cc(Oc2ccc(NC(=O)Nc3ccc(Cl)c(C(F)(F)F)c3)cc2)ccn1
inhibition [5]: Active

CCCCCCCCCCCC[C@H](N=[N+]=[N-])[C@H]1CC[C@H]([C@H](CCCC[C@H](CCCCC[C@@H](CC2=C[C@H](C)OC2=O)N=[N+]=[N-])N=[N+]=[N-])N=[N+]=[N-])O1
inhibition at 50 µM ([4]; 120 h): 40%

CN(Cc1cnc2nc(N)nc(N)c2n1)c1ccc(C(=O)N[C@@H](CCC(=O)O)C(=O)O)cc1 [METHOTREXATE]
Papp at 16 h, 10 µM [3]: 0.007 ×10⁻⁶ cm/s
Peff [1]: 0.037 ×10⁻⁶ cm/s
